Experimental findings from article PMC12006171, “Marsupial cathelicidins: characterization, antimicrobial activity and evolution in this unique mammalian lineage” (Frontiers in Immunology, 2025) are described below.

Holding throughout (experiment): microbe, parasite or virus in culture
Holding throughout (assay type): cell-based

Experiment [1] concerns Streptococcus agalactiae ATCC 12386. The conditions noted are these: ATCC 12386; for MIC: read-out: MIC S. agalactiae ATCC. Here is the method:
(§1) Antimicrobial testing of 78 cathelicidin MPs was performed in two phases as outlined in Figure 1 . In phase I, 40 peptides (27 extant and 13 ancestral) were selected for testing based on rank (outlined above) and similarity to published marsupial cathelicidins with known antimicrobial activity ([33], [41]–[43]). These peptides were tested against nine bacteria (Staphylococcus aureus ATCC 29213 and clinical isolate, Escherichia coli ATCC 25922 and clinical isolate, Pseudomonas aeruginosa ATCC 27853 and clinical isolate, Streptococcus agalactiae ATCC 12386 and clinical isolate, Streptococcus pneumoniae ATCC 49619) and three fungi (Candida krusei ATCC 6258, Candida parapsilosis ATCC 22019, and Candida albicans clinical isolate). Details regarding these strains are available in Supplementary Table 4 . The antimicrobial activity of cathelicidins was determined as the minimum inhibitory concentration (MIC), which was the lowest concentration of cathelicidin that prevented visible bacterial or fungal growth, relative to the negative control. […] Minimum bactericidal concentration (MBC) and/or minimum fungicidal concentration (MFC) was conducted to determine microbicidal versus static action. Activity against S. aureus ATCC, E. coli ATCC, and Pseudomonas aeruginosa ATCC 27853 was examined in the presence of divalent cations to determine the impact of inhibitors.
(§2) Antimicrobial activity was determined using a broth microdilution susceptibility assay in 96 well polypropylene plates according to Clinical Laboratory Standards Institute guidelines M07-A and M26A as described previously ([33], [42], [43]). The bacterial and fungal isolates from humans and animals used in this study are outlined in Supplementary Table 4 . Only yeasts were included in the panel of fungi as they have been used in the susceptibility testing of eutherian ([3], [81]–[83]) and other marsupial cathelicidins previously ([33], [42], [43]). Cathelicidin mature peptides were solubilized in DMSO and serially diluted in duplicate from 128-0.25μg/mL in a final volume of 100µL. For bacteria, cathelicidins were diluted in Mueller Hinton Broth (MHB) with or without 10% lysed horse blood, and with (MH II B) or without (MHB) calcium and magnesium cations. For fungi, cathelicidins were diluted in Roswell Park Memorial Institute medium (RPMI)-1640 MOPS. Ampicillin or tetracycline were included as a positive control for Gram-positive and -negative bacteria respectively, while amphotericin B was used for fungi. A media-only negative control and growth control (no cathelicidin) were also included on each plate. Bacteria were sub-cultured on Muller Hinton agar (MHA) or sheep blood agar (BA), and fungi on Sabouraud dextrose agar (SAB), 20–24 hours prior to the test. Colonies were suspended in saline, the concentration adjusted to a 0.5 McFarland standard, and then diluted in media to a concentration of 1.0 x 10^6 cells/mL. Then, 100μL was added to each well of the cathelicidin dilution plate, giving a final inoculum density of 5 x 10^5 CFU/mL and cathelicidin concentration of 64-0.125μg/mL. Colony counts were performed on MHA/BA/SAB to confirm inoculum density. All plates were incubated at 35°C for 20–24 hours, depending on the strain.
(§3) Colonies were counted and compared to the colony count of the starting inoculum.

Experiment [2] concerns Streptococcus agalactiae Clinical isolate - animal. To be noted: clinical isolate - animal; for MIC: read-out: MIC S. agalactiae. Here is the method: as §1, §2, §3
In experiment [3] the test system is Streptococcus pneumoniae ATCC 49619. The conditions noted are these: ATCC 49619; for MIC: read-out: MIC S. pneumoniae ATCC. Here is the method:
as §1, §2, §3

In experiment [4] the test system is Pseudomonas aeruginosa ATCC 27853. The conditions noted are these: ATCC 27853; for MIC: read-out: MIC P. aeruginosa ATCC. The gist of the method: (§4)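 Each isolate was exposed to twofold peptide dilutions (final 64-0.125μg/mL) in Mueller Hinton broth, optionally supplemented with calcium and magnesium or 10% lysed horse blood. The MIC was taken as the lowest concentration lacking visible growth after 20–24 hours at 35°C.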

Experiment [5] deals with Escherichia coli clinical isolate - animal. To be noted: clinical isolate - animal. Summed up: as §4
Experiment [6] has as its system Staphylococcus aureus ATCC 29213. The conditions noted are these: ATCC 29213; read-out: MIC S. aureus ATCC. Summed up:
as §4

Experiment [7] relates to Pseudomonas aeruginosa clinical isolate - animal. The conditions noted are these: clinical isolate - animal. Summed up: as §4
Experiment [8] concerns Escherichia coli ATCC 25922. The conditions noted are these: ATCC 25922. Summed up:
as §4

Experiment [9] has as its system Staphylococcus aureus clinical isolate - animal. To be noted: clinical isolate - animal; read-out: MIC S. aureus. The gist of the method: as §4
[10] abbreviates: read-out: MIC in the presence of cations E. coli ATCC.

In brackets after ≈: the same amount, converted by molar mass. Where two headings read alike, the source gives them in different places. Where a SMILES comes first, the peptide text is derived from it.

Consider `CC[C@H](C)[C@H](NC(=O)[C@H](C)NC(=O)[C@H](CC(N)=O)NC(=O)[C@H](CCCCN)NC(=O)[C@H](CC(C)C)NC(=O)[C@@H](NC(=O)[C@H](CC(N)=O)NC(=O)[C@H](CCCCN)NC(=O)[C@@H](NC(=O)[C@H](CCCCN)NC(=O)[C@H](CC(=O)O)NC(=O)CNC(=O)[C@H](C)NC(=O)[C@H](CCCCN)NC(=O)[C@H](CCCCN)NC(=O)[C@H](CC(C)C)NC(=O)[C@H](CC(C)C)NC(=O)[C@H](CC(N)=O)NC(=O)[C@H](CCCCN)NC(=O)[C@H](Cc1ccccc1)NC(=O)[C@H](CCCCN)NC(=O)[C@H](CCC(=O)O)NC(=O)[C@H](Cc1ccccc1)NC(=O)[C@@H](NC(=O)[C@H](CCCNC(=N)N)NC(=O)[C@H](CC(C)C)NC(=O)[C@H](CCCNC(=N)N)NC(=O)[C@@H](N)CCCCN)[C@@H](C)CC)[C@@H](C)CC)[C@@H](C)O)C(=O)N[C@@H](CC(N)=O)C(=O)NCC(=O)N[C@@H](CC(C)C)C(=O)N[C@@H](CC(C)C)C(=O)N[C@@H](CO)C(=O)N1CCC[C@H]1C(=O)N[C@H](C(=O)NCC(=O)N[C@@H](CCCNC(=N)N)C(=O)O)[C@@H](C)CC` [MAP7] (H-KRLRIFEKFKNLLKKAGDKIKNTLKNAINGLLSPIGR-OH), for which, in experiment [1], the MBC S. agalactiae ATCC stood at 15.1 µM (≈ 64 µg/mL) and the MIC S. agalactiae ATCC amounted to 15.1 µM (≈ 64 µg/mL). For the same compound, in [2], the MBC S. agalactiae was 15.1 µM (≈ 64 µg/mL) and the MIC S. agalactiae was determined as 15.1 µM (≈ 64 µg/mL). Also, in experiment [3], the MBC S. pneumoniae ATCC came to 7.5 µM (≈ 31.8 µg/mL) and the MIC S. pneumoniae ATCC worked out at 7.5 µM (≈ 31.8 µg/mL). For the same compound, in experiment [4], the “MBC P. aeruginosa ATCC” value is on record as 7.5 (7.5)^7.5 µM, the “MIC P. aeruginosa ATCC” value is 7.5 (7.5)^7.5 µM and the “MIC in the presence of cations P. aeruginosa ATCC” value is reported as 7.5 (7.5)^7.5 µM. Besides, in experiment [5], the “MBC E. coli” value was 3.7 (3.7)^3.7 µM, the “MIC E. coli” value was 3.7 (3.7)^3.7 µM and the “MIC in the presence of cations E. coli” value was 3.7 (3.7)^3.7 µM. Besides, the MIC in experiment [6] is listed as above 15.1 µM. Further, in experiment [7], the “MBC P. aeruginosa” value amounted to 64 µg/mL (≈ 15.1 µM). The MIC in experiment [7] (read-out: MIC P. aeruginosa) is 7.5 µM (≈ 31.8 µg/mL). The MIC in experiment [7] (read-out: MIC in the presence of cations P. aeruginosa) was 7.5 µM. In [8], the “MBC E. coli ATCC” value is listed as 3.7 µM (≈ 15.7 µg/mL). Besides, the MIC in experiment [8] (read-out: MIC E. coli ATCC) is reported as 1.8 µM (≈ 7.63 µg/mL). For the same compound, in [8] (setting [10]), the MIC came to 1.8 µM. In addition, in experiment [9], the MIC is listed as above 15.1 µM.
For `CC[C@H](C)[C@H](NC(=O)[C@H](C)NC(=O)[C@H](CC(N)=O)NC(=O)[C@H](CCCCN)NC(=O)[C@H](Cc1ccccc1)NC(=O)[C@@H](NC(=O)[C@H](CC(=O)O)NC(=O)[C@H](CCCCN)NC(=O)[C@@H](NC(=O)[C@H](CCCCN)NC(=O)[C@H](CC(=O)O)NC(=O)[C@H](CO)NC(=O)[C@H](C)NC(=O)[C@H](CCCCN)NC(=O)[C@H](CCCCN)NC(=O)[C@H](CC(C)C)NC(=O)[C@H](CC(C)C)NC(=O)[C@H](CC(N)=O)NC(=O)[C@H](CCCCN)NC(=O)[C@@H](NC(=O)[C@H](CCCCN)NC(=O)[C@H](CCC(=O)O)NC(=O)[C@@H](NC(=O)[C@@H](NC(=O)[C@H](CCCNC(=N)N)NC(=O)[C@H](CC(C)C)NC(=O)[C@H](CCCNC(=N)N)NC(=O)[C@H](CCCCN)NC(=O)[C@@H](N)C(C)C)[C@@H](C)CC)C(C)C)[C@@H](C)CC)[C@@H](C)CC)[C@@H](C)O)C(=O)N[C@@H](CC(N)=O)C(=O)N[C@@H](CO)C(=O)N[C@@H](CC(C)C)C(=O)N[C@@H](CC(C)C)C(=O)N[C@@H](CO)C(=O)O` [MacroCath7] (H-VKRLRIVEKIKNLLKKASDKIKDTFKNAINSLLS-OH), the MIC in [1], in [2], in [3], in experiment [4], in [6] and in [7] (read-out: MIC P. aeruginosa) was above 16.3 µM each time. In addition, the MIC was 8.1 µM (≈ 31.8 µg/mL) in experiment [8] (read-out: MIC E. coli ATCC), 8.1 µM in experiment [8] (setting [10]) and above 16.3 µM in experiment [9]. The “MBC E. coli” value in [5] is reported as 16.3 (16.3)^16.3 µM. For the same compound, in experiment [5], the “MIC E. coli” value is 16.3 (16.3)^16.3 µM. Further, the “MIC in the presence of cations E. coli” value in experiment [5] was 16.3 (16.3)^16.3 µM. For the same compound, the “MBC E. coli ATCC” value in experiment [8] was 16.3 µM (≈ 64 µg/mL).
Consider `CC[C@H](C)[C@H](NC(=O)[C@H](CC(C)C)NC(=O)[C@H](CCCCN)NC(=O)[C@H](C)NC(=O)[C@H](CC(C)C)NC(=O)[C@H](CO)NC(=O)[C@H](CCCNC(=N)N)NC(=O)[C@@H](N)C(C)C)C(=O)N[C@@H](Cc1ccc(O)cc1)C(=O)N[C@@H](CCC(N)=O)C(=O)N[C@@H](CCCCN)C(=O)N[C@@H](Cc1ccc(O)cc1)C(=O)N[C@@H](CCCNC(=N)N)C(=O)N[C@@H](CCC(N)=O)C(=O)N[C@@H](CC(C)C)C(=O)N[C@@H](CC(C)C)C(=O)N[C@@H](CC(=O)O)C(=O)N[C@@H](CCCCN)C(=O)N[C@@H](Cc1ccc(O)cc1)C(=O)N[C@H](C(=O)N[C@H](C(=O)N[C@@H](CC(C)C)C(=O)N[C@@H](CCCNC(=N)N)C(=O)N[C@@H](CC(N)=O)C(=O)NCC(=O)N[C@@H](Cc1ccc(O)cc1)C(=O)N[C@@H](CCCCN)C(=O)N[C@@H](CCCCN)C(=O)N[C@@H](CC(C)C)C(=O)N[C@@H](CCC(N)=O)C(=O)N[C@@H](CC(=O)O)C(=O)N[C@H](C(=O)N[C@@H](Cc1ccccc1)C(=O)N[C@@H](CO)C(=O)N[C@@H](CCCCN)C(=O)N[C@@H](CCC(N)=O)C(=O)N[C@H](C(=O)NCC(=O)N[C@@H](CO)C(=O)O)C(C)C)[C@@H](C)CC)[C@@H](C)CC)[C@@H](C)O` [MacroCath8] (H-VRSLAKLIYQKYRQLLDKYTILRNGYKKLQDIFSKQVGS-OH), for which the MIC in [1], in experiment [2], in experiment [3], in experiment [4], in experiment [6] and in experiment [7] (read-out: MIC P. aeruginosa) was above 13.6 µM in each case. For the same compound, the MIC in experiment [8] (read-out: MIC E. coli ATCC) and in [9] was above 13.6 µM in each case. For the same compound, the “MIC E. coli” value in experiment [5] is 13.6 (>13.6)^13.6 µM. For the same compound, the “MIC in the presence of cations E. coli” value in [5] was 13.6 (>13.6)^13.6 µM.
As to `CC[C@H](C)[C@H](NC(=O)CNC(=O)[C@H](CCC(=O)O)NC(=O)[C@H](CCC(N)=O)NC(=O)[C@@H](NC(=O)[C@H](CCCCN)NC(=O)[C@H](CC(N)=O)NC(=O)[C@H](CCCCN)NC(=O)[C@@H](NC(=O)[C@H](CC(C)C)NC(=O)[C@H](CC(N)=O)NC(=O)CNC(=O)[C@H](CC(C)C)NC(=O)[C@H](CCCCN)NC(=O)[C@H](CCCNC(=N)N)NC(=O)[C@H](CC(C)C)NC(=O)CN)[C@@H](C)CC)[C@@H](C)CC)C(=O)N[C@@H](CCC(=O)O)C(=O)N[C@@H](Cc1c[nH]cn1)C(=O)N[C@@H](Cc1ccccc1)C(=O)N[C@@H](Cc1ccccc1)C(=O)NCC(=O)N[C@@H](CCCNC(=N)N)C(=O)N[C@@H](CCCNC(=N)N)C(=O)O` [SmcrCath6] (H-GLRKLGNLIKNKIQEGIEHFFGRR-OH), the MIC in experiment [1], in experiment [2], in experiment [3], in [4], in [5] and in experiment [6] was above 22.6 µM in each case. The MIC in experiment [7] (read-out: MIC P. aeruginosa) was above 22.6 µM; in [8] (read-out: MIC E. coli ATCC), 11.3 µM (≈ 31.9 µg/mL); in experiment [8] (setting [10]), 22.6 µM; in experiment [9], above 22.6 µM. In addition, the “MBC E. coli ATCC” value in experiment [8] came to 22.6 µM (≈ 63.8 µg/mL).
